For 89 compounds, melting point results are on record in a melting point compilation (Tetko et al.; mined from patent text by program, amines drawn as free bases though some values may be those of a salt).

The term melting point denotes the temperature of the solid-liquid transition.

As for `O=C1c2ccc([N+](=O)[O-])cc2C(=O)N1CC(=O)N1c2ccccc2N(Cc2ccccc2)C(=O)[C@H]2CCC[C@H]21` (relative stereo), the melting point is 196 to 198 °C.
The value for `CCC(c1ccc(C(O)(C(F)(F)F)C(F)(F)F)cc1)S(=O)(=O)c1ccccc1` (centres undefined) was 148 °C; that for `CN(CC(=O)c1ccc(Br)cc1)C(=O)OC(C)(C)C` was 87 to 90 °C.
As to `CC(C)(C)c1ccc(O)c(CO)c1`, the melting point was in the range of 65 to 85 °C.
The compound `CC(C)(C)Nc1nc2cc(Cl)c(Cl)cc2n1C1CC(CO)C(O)C1O` (centres undefined) came in with a melting point of 130 to 132 °C.
For `Cc1ccc(N2CCNCC2)c2c1CC[C@@H](NC(=O)c1ccc(N3CCOCC3)cc1)C2`, the melting point is 207 to 210 °C.
For the compound `CC(C)Oc1nc(N)nc2c1ncn2C1C=CC(CO)C1` (centres undefined), the melting point lay within 188 to 191 °C.
On to `c1ccc2sc(-c3nc(COc4ccc(CCCn5ccnc5)cc4)co3)cc2c1`, for which the melting point lay within 149 to 150 °C.
The result for `N#Cc1cc(F)cc2c1OCCC21SC(=O)NC1=O` (centres undefined) reads 230 to 232 °C; that for `Cc1c(N)c(C)c2c(c1-c1ccccc1)OCC2c1ccc(C(C)C)cc1` (centres undefined), 101 to 102 °C; that for `O=C(O)c1cc(Oc2cc(Cl)c(Cl)cc2Cl)ccc1[N+](=O)[O-]`, 157 to 161 °C.
As to `NC(=O)c1cccc(Nc2ccncc2)c1`, the melting point lay in the range of 201 to 203 °C.
The value for `COc1c(Cl)cccc1N1CN(C)C(=S)n2ncnc21` was 208 to 210 °C.
On to `Nc1nc(-c2cc(Cl)ccc2Cl)nc(N2CC=CC2)n1`, for which the melting point was 205 to 206 °C.
`COc1ccc2cc3c(=O)n(C)cc(C(=O)NCCN(C)C)c3nc2c1` showed a melting point of 213 to 215 °C.
`BrCc1ccc2nc(-c3ccccc3)oc2c1` registered a melting point of 162 °C.
The compound `CC(=O)Oc1cccc2oc(C(=O)OCc3ccc(Cl)cc3)c(C)c12` returned a melting point of 95 to 100 °C.
`O=C1OC(c2ccccc2)(c2ccccc2)C2CN(C3CCN(Cc4ccccc4)CC3)CCN12` (centres undefined) displayed a melting point of 153 to 155 °C.
The value for `CC(Sc1cc(C(C)(C)C)c(O)c(C(C)(C)C)c1)C(=O)O` (centres undefined) was 110 to 113 °C; that for `Cc1cc(F)ccc1-c1cc(N2CCS(=O)(=O)CC2)ncc1N(C)C(=O)C(C)(C)c1cc(C(F)(F)F)cc(C(F)(F)F)c1` was 135 to 138 °C; that for `O=C1NCCN1c1ccc(S(=O)(=O)Nc2ccc(F)cc2)cc1` was 249 to 251 °C.
The result for `CCOc1ccc(CCC=[N+]([O-])C(C)(C)C)cc1` reads 54 to 57 °C; that for `CCC(O)(c1ccc(O)cc1)c1ccc(C(F)(F)F)cc1` (centres undefined), 126 to 127 °C.
On to `CC(C)(C)NC(=O)NC(Cc1ccccc1)C(=O)Nc1c(F)cc(F)cc1F` (centres undefined), for which the melting point lay within 205 to 206 °C.
Compound `CC(=O)NC[C@H]1CN(c2ccc(N3CCC(=C(C#N)n4ccnc4C)CC3)c(F)c2)C(=O)O1` came in with a melting point of 204 to 206 °C.
With `CCC(=S)C1=C(C)NC2=C(C1)C(=O)c1ccccc12`, the melting point stood at 240 °C.
Compound `C=C(C(=O)OC)c1ccc2c(=O)c3ccccc3ccc2c1` yielded a melting point of 153 to 156 °C.
For `COC(=N)Nc1nc(Cl)cc(Cl)n1`, the melting point turned out to be 178 °C.
Turning to `Cc1nc2cc(C)c(OCC(C)(C)CS(N)(=O)=O)nn2n1`, the melting point lay in the range of 217 to 218 °C.
For the compound `COC1C=CC2C3Cc4ccc(O)c5c4C2(CCN3C)C1O5` (centres undefined), the melting point fell in the range of 242 to 243 °C.
In the case of `Cn1cncc1C(c1ccc(Cl)cc1)c1ccc2c(c1)C(c1cccc(Cl)c1)SCc1nnnn1-2` (centres undefined), the melting point worked out at 162 °C.
In turn, `CCN(CC)CCN1c2cc(Cl)ccc2S[C@H]2[C@@H](O)[C@H](O)[C@@H](COC(C)=O)O[C@H]21` had a melting point of 180 °C.
The value for `CCCCNC(=O)n1sc(OCC)nc1=O` was 54 °C.
For the compound `CN1C(=O)NC(=O)C1O` (centres undefined), the melting point is 135 to 136 °C.
`O=C1N(C(c2ccccc2)c2ccccc2)c2ccc(F)cc2C12COc1cc3c(cc12)CCO3` (centres undefined) returned a melting point of 228 to 229 °C.
The compound `Cc1c(NC(=O)c2ccc(-c3ccc(F)c(F)c3)cc2)ccc2cc(CN3CCCC3)cnc12` came in with a melting point of 199 to 201 °C.
In the case of `O=C(NCCCCN1CCC(c2ccc3c(c2OCCO)CCCC3)CC1)c1ccc(-c2ccc(Cl)cc2)cc1`, the melting point amounted to 162 °C.
The result for `Cn1cc(C=O)c2c3sc4ccccc4c3ccc21` reads 224 °C.
As for `CSC(c1ccc(Cl)cc1)C(C(=O)C(C)(C)C)n1cncn1` (centres undefined), the melting point turned out to be 145 °C.
`Nc1cc(Cl)cc(Cl)c1C(=O)NCc1cccc(Cl)c1` showed a melting point of 167 to 171 °C.
`CCCN(CCC)C(=O)c1cc(C(=O)N[C@@H](Cc2cc(F)cc(F)c2)[C@H](O)CNCc2cc(CN(C)C)ccn2)cc(-c2ncco2)c1` came in with a melting point of 65 to 68 °C.
`CCC(CC)C(=O)OC1CC(C)C=C2C=CC(C)C(CCC3CC(O)CC(=O)O3)C21` (centres undefined) returned a melting point of 120 to 122 °C.
For `O=[N+]([O-])c1ccc2c(c1)CCNCC2`, the melting point was 53 to 56 °C.
Turning to `COc1ccc2ccc(S(=O)(=O)N[C@@H](CCCNC(=N)N)C(=O)N3CCC(c4ccccc4)CC3C(=O)O)cc2c1` (some centres undefined), the melting point lay within 183 to 186 °C.
The compound `CCCCOc1cc(CCCC(=O)O)n(Cc2ccc(Cl)cc2Cl)n1` gave a melting point of 60.5 to 61 °C.
`Cc1cnc2c3c(nccc13)C(=O)c1ccccc1-2`: the melting point lay in the range of 208 to 210 °C.
In the case of `Nc1ccc(OC2CCN(c3ccncc3)CC2)cc1`, the melting point is 209 to 210 °C.
The result for `CCOC(=O)/C=C(C)/C=C/C=C(C)/C=C/c1c(Cl)cc(OC(F)(F)F)c(C)c1Cl` reads 93 to 94 °C.
For the compound `CCC1Cc2ccc([N+](=O)[O-])cc2C=N1` (centres undefined), the melting point was in the range of 61 to 62 °C.
`Cc1cccc(N2CCN(CCCCc3ccc(C(CCC(=O)O)=NO)cc3)CC2)c1` yielded a melting point of 175 to 177 °C.
For `COC(=O)Nc1cnc2c(NC(=O)c3c(Cl)cccc3Cl)cccc2c1-n1ccnc1`, the melting point was in the range of 236 to 238 °C.
The value for `Nc1ccnn1-c1cccc(C(F)(F)F)c1` was 77 to 79 °C; that for `O=C(NC(C(=O)OCc1ccccc1)C(=O)C1CC1)c1ccc(F)cc1` (centres undefined) was 94.5 to 96 °C; that for `CC(C)N(C)C(=O)NS(=O)(=O)c1cc(-n2c(=O)cc(C(F)(F)F)n(C)c2=O)c(F)cc1Cl` was 145 °C.
`Cc1cc2c(-c3ccccc3C)c(C(=O)O)c(=O)n(C)c2cc1Cl` had a melting point of 204 to 205 °C.
In the case of `CC(C)(CO)NC(=O)c1ccccc1`, the melting point was in the range of 80 to 82 °C.
The value for `O=c1[nH]c(-c2ccc(F)cc2)nc2ccc(CN3CCOCC3)cc12` was 322 to 323 °C.
The value for `CC1CC(N)=NN1c1ccc(Cl)cc1Cl` (centres undefined) was 109 to 111 °C.
`O=C(O)c1oc(=O)c2ccc(Cl)cc2c1-c1ccccc1` came in with a melting point of 206 to 208 °C.
As for `O=C(c1ccc(-c2cnc3c(c2)N(Cc2c(Cl)cccc2Cl)C(=O)CN3)cc1)N1CCC(N2CCCC2)CC1`, the melting point came out at 199 °C.
`CCNP(=O)(Cc1ccc(NC(=O)C2=Cc3cc(C4CCCCC4)ccc3CC2)cc1)NCC` came in with a melting point of 163 to 165 °C.
The result for `ON=C(c1cc(F)cc(F)c1)c1cccc2nc(N[C@@H]3CCc4ccccc43)ccc12` reads 120 °C; that for `COc1ccc2cc(C#N)sc2c1`, 82 to 83 °C; that for `O=C(c1ccc(Cl)cc1)c1cc(-c2cccnc2)c(N2CCOCC2)s1`, 196 °C.
The value for `O=C(NCCCCC1CCSS1)NN1CCCCC1` (centres undefined) was 67 to 69 °C; that for `CC(C)(C)OC(=O)CN(C(=O)CN1C(=O)c2ccccc2C1=O)c1ccccc1C(=O)N1CCCc2ccccc21` was 150 °C; that for `NS(=O)(=O)c1ccc(-c2noc(-c3cnn4c(C(F)F)cc(-c5ccc(Cl)cc5)nc34)n2)s1` was 259 °C.
The value for `CO/C=C(/C(=O)OC)c1ccccc1Oc1ncnc(Cl)n1` was 137 to 140 °C; that for `O=C(O)CCC(=O)c1ccc(-n2cnc3c2CCCC3)cc1` was 234 to 235 °C.
In turn, `CCNC(=O)C(I)=C(Br)I` yielded a melting point of 154 to 155 °C.
Compound `COC(=O)C(C(C)C)N(C)S(=O)(=O)c1ccc(-c2ccc(NC(=O)c3oc4cccc(C(O)CO)c4c3C)cc2)cc1` (centres undefined) displayed a melting point of 182 to 185 °C.
The value for `Cc1ccc(C2(Br)C(=O)NC(=O)NC2=O)cc1` was 210 to 213 °C.
In turn, `COc1c(N2CC[C@@H](C3(NC(=O)OC(C)(C)C)CCC3)C2)ccc2c(=O)c(C(=O)O)cn([C@@H]3C[C@@H]3F)c12` had a melting point of 174 °C.
In turn, `CCNC(=O)c1c(Br)ccc(OC)c1Cl` gave a melting point of 181 to 182 °C.
The value for `CCOC(=O)C(C)Oc1ccc(Oc2nc3ccc(Cl)cc3cc2Cl)cc1` (centres undefined) was 70 °C; that for `N#Cc1cnc2ccc(-n3cccc3C=O)cc2c1Nc1cccc(Br)c1` was 94 to 95 °C.
`CC(=O)OCC(=O)CS(=O)(=O)C(c1ccc(Cl)cc1)c1ccc(Cl)cc1` yielded a melting point of 57 to 60 °C.
For `O=C(CCCCCCSc1ccccc1)c1ncco1`, the melting point was in the range of 39 to 40 °C.
As for `CC1COP(=O)(Cc2ccc(N)cc2)OC1` (centres undefined), the melting point lay in the range of 158 to 159 °C.
`O=Cc1ccc2c(c1)Cc1cc(Br)ccc1-2` came in with a melting point of 161 to 170 °C.
In turn, `CC1(C)NC(=O)OC12CCNCC2` displayed a melting point of 38 to 40 °C.
For the compound `CC(C)(C)NCC(O)COc1ccc(-c2noc3sccc23)cc1` (centres undefined), the melting point was determined as 118 °C.
In turn, `OC(CNc1c(Br)cnc2ccccc12)c1ccccc1` (centres undefined) showed a melting point of 131 to 132 °C.
The value for `COC(=O)c1cc(=O)c2oc3ccccc3c(=O)c2[nH]1` was 244 to 245 °C; that for `c1ccc(OCCSCc2nnc(-c3ccc(OCc4ccccn4)cc3)o2)cc1` was 115 °C.
The result for `C1CNCCN2CCOCCOCCN(CCN1)CCOCCOCC2` reads 69 °C; that for `C=CC(=O)Nc1ccc(-c2ccc(C(=O)N3CCN4CCC3CC4)o2)cc1`, 230 to 246 °C.
`O=C(O)[C@H](Cc1ccccc1)N[C@@H](Cc1c[nH]c2ccccc12)C(=O)OCc1ccccc1` displayed a melting point of 147 to 150 °C.
Consider `CCOC(=O)c1cn(C2CC2)c2c(OC)c(F)c(F)cc2c1=O`, for which the melting point is 178 to 180 °C.
